Starred links: 1 amine or outer side, 2 acyl side, 3 side chain; linkers in the order of their positions; H or OH if unused. Non-standard residues stand in square brackets, D forms with d. Residues, ends and D or L forms follow the SMILES beside them. Groups on a side chain read outwards from the residue. *: point of attachment. C18 diacid = O=C(O)CCCCCCCCCCCCCCCCC(=O)*; C16 diacid = O=C(O)CCCCCCCCCCCCCCC(=O)*; γGlu = O=C(O)[C@H](CCC(=O)[*:2])N[*:1]; Glutaryl = O=C(CCCC(=O)[*:2])[*:1]; Nle = CCCC[C@H](N)C(=O)O; AEEA = NCCOCCOCC(=O)O; Aib = CC(C)(N)C(=O)O
B1: AT762 (peptide)
peptide: Glutaryl-GTFISDYSIAMDKIK(C16 diacid)QQDFVEWLLAQKPSSGAPPPS-OH
SMILES: CC[C@H](C)[C@H](NC(=O)[C@H](CO)NC(=O)[C@H](Cc1ccc(O)cc1)NC(=O)[C@H](CC(=O)O)NC(=O)[C@H](CO)NC(=O)[C@@H](NC(=O)[C@H](Cc1ccccc1)NC(=O)[C@@H](NC(=O)CNC(=O)CCCC(=O)O)[C@@H](C)O)[C@@H](C)CC)C(=O)N[C@@H](C)C(=O)N[C@@H](CCSC)C(=O)N[C@@H](CC(=O)O)C(=O)N[C@@H](CCCCN)C(=O)N[C@H](C(=O)N[C@@H](CCCCNC(=O)CCCCCCCCCCCCCCC(=O)O)C(=O)N[C@@H](CCC(N)=O)C(=O)N[C@@H](CCC(N)=O)C(=O)N[C@@H](CC(=O)O)C(=O)N[C@@H](Cc1ccccc1)C(=O)N[C@H](C(=O)N[C@@H](CCC(=O)O)C(=O)N[C@@H](Cc1c[nH]c2ccccc12)C(=O)N[C@@H](CC(C)C)C(=O)N[C@@H](CC(C)C)C(=O)N[C@@H](C)C(=O)N[C@@H](CCC(N)=O)C(=O)N[C@@H](CCCCN)C(=O)N1CCC[C@H]1C(=O)N[C@@H](CO)C(=O)N[C@@H](CO)C(=O)NCC(=O)N[C@@H](C)C(=O)N1CCC[C@H]1C(=O)N1CCC[C@H]1C(=O)N1CCC[C@H]1C(=O)N[C@@H](CO)C(=O)O)C(C)C)[C@@H](C)CC
B2: AT760 (peptide)
peptide: EGTFISDYSIXMDKIKQQDFVNWLLAQKPSSGAPPPS
modifications: Aib at 13; C16-diacid on Lys18 side chain, no linker; C-terminal COOH; GIP(1-42) numbering

Assays:
[1] = Physical stability: fibril formation in Thioflavin T (ThT) assay with agitation; type: physicochemical; settings: 25° C., agitation
Summary of the method: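 Read-out is continuous ThT fluorescence at 486 nm, with lag time taken where signal reaches 10% between pre- and post-transition baselines. Filtered samples (1, 5, 7.5 or 15 mg/ml; pH 7.4 phosphate buffer or NaOH-adjusted water) were stressed at 25° C. by orbital rotation at 300 rpm with one silica bead per well.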

[2] = Solubility by visual inspection of peptide solutions; type: physicochemical
Summary of the method: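 Solubility scored by eye: clear, colorless appearance after gentle mixing. Samples prepared at 1, 5, 7.5 or 15 mg/ml in either pH 7.4 water (NaOH-adjusted) or 50 mM sodium phosphate buffer, pH 7.4.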

[3] = molecular target: T1, human GIP receptor (Homo sapiens, UniProt P48546); experiment: cAMP assay Alternative 2 (Gaddum assay), antagonist potency pKb; type: cell-based; settings: Table 2C; Gaddum equation, single antagonist dose; HEK-293 hGIPR; read-out: nM (Kb)
T1 construct: host or cells: HEK-293 cells, transient transfection (Lipofectamine 2000), cDNA in pCMV-Script vector
T1 sequence (P48546 22-466): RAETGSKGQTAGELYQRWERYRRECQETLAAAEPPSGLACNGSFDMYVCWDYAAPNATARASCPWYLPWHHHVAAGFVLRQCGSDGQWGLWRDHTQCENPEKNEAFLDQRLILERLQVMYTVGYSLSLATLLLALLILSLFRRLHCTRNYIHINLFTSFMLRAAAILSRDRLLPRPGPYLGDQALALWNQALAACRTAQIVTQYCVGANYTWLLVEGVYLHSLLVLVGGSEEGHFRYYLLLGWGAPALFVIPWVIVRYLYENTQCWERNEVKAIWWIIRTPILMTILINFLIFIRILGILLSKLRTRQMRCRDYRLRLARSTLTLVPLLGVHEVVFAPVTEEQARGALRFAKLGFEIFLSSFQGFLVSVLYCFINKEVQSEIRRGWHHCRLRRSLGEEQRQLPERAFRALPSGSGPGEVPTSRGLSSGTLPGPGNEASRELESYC

[4] = molecular target: T2, human GIP receptor (human, UniProt P48546 22-466); experiment: cell-based or functional assay
T2 sequence (looked up): T1 sequence (P48546 22-466)

Row | Molecule | Avr lag time (h) ([1]; 1 mg/ml, TFA, Phosphate (7.4)) | Visual appearance ([2]; 1 mg/ml, TFA, Phosphate (7.4)) | Kb [3] [nM] | nM (Kb, Schild analysis, cAMP) [4] [nM] | pKb (Schild analysis, cAMP) [4] | other results
1 | CC[C@H](C)[C@H](NC(=O)[C@H](CCCCN)NC(=O)[C@H](CCC(=O)O)NC(=O)[C@H](CC(C)C)NC(=O)C(C)(C)NC(=O)[C@@H](NC(=O)[C@H](CO)NC(=O)[C@H](Cc1ccc(O)cc1)NC(=O)[C@H](CCC(=O)O)NC(=O)[C@H](CO)NC(=O)[C@@H](NC(=O)[C@H](Cc1ccccc1)NC(=O)[C@@H](NC(=O)CNC(=O)[C@@H](N)CCC(=O)O)[C@@H](C)O)[C@@H](C)CC)[C@@H](C)CC)C(=O)N[C@@H](CCCCNC(=O)COCCOCCNC(=O)COCCOCCNC(=O)CC[C@H](NC(=O)CCCCCCCCCCCCCCCCC(=O)O)C(=O)O)C(=O)N[C@@H](CCC(N)=O)C(=O)N[C@@H](CCC(N)=O)C(=O)N[C@@H](CC(=O)O)C(=O)N[C@@H](Cc1ccccc1)C(=O)N[C@H](C(=O)N[C@@H](CCC(=O)O)C(=O)N[C@@H](Cc1c[nH]c2ccccc12)C(=O)N[C@@H](CC(C)C)C(=O)N[C@@H](CC(C)C)C(=O)N[C@@H](C)C(=O)N[C@@H](CCC(N)=O)C(=O)N[C@@H](CCCCN)C(=O)N1CCC[C@H]1C(=O)N[C@@H](CO)C(=O)N[C@@H](CO)C(=O)NCC(=O)N[C@@H](C)C(=O)N1CCC[C@H]1C(=O)N1CCC[C@H]1C(=O)N1CCC[C@H]1C(=O)N[C@@H](CO)C(=O)O)C(C)C [AT754] (H-EGTFISEYSI[Aib]LEKIK([AEEA-AEEA-γGlu-C18 diacid])QQDFVEWLLAQKPSSGAPPPS-OH; N-terminus assumed) | fnd (Fnd = fibrils not detected within experiment time (96 hours) with agitation.) | Clear | 2.2 | – | – | –
2 | CCCC[C@H](NC(=O)C(C)(C)NC(=O)[C@@H](NC(=O)[C@H](CO)NC(=O)[C@H](Cc1ccc(O)cc1)NC(=O)[C@H](CCC(=O)O)NC(=O)[C@H](CO)NC(=O)[C@@H](NC(=O)[C@H](Cc1ccccc1)NC(=O)[C@@H](NC(=O)CNC(=O)CCCC(=O)O)[C@@H](C)O)[C@@H](C)CC)[C@@H](C)CC)C(=O)N[C@@H](CCC(=O)O)C(=O)N[C@@H](CCCCN)C(=O)N[C@H](C(=O)N[C@@H](CCCCNC(=O)CCCCCCCCCCCCCCC(=O)O)C(=O)N[C@@H](CCC(N)=O)C(=O)N[C@@H](CCC(N)=O)C(=O)N[C@@H](CCC(=O)O)C(=O)N[C@@H](Cc1ccccc1)C(=O)N[C@H](C(=O)N[C@@H](CCC(=O)O)C(=O)N[C@@H](Cc1c[nH]c2ccccc12)C(=O)N[C@@H](CC(C)C)C(=O)N[C@@H](CC(C)C)C(=O)N[C@@H](C)C(=O)N[C@@H](CCC(N)=O)C(=O)N[C@@H](CCCCN)C(=O)N1CCC[C@H]1C(=O)N[C@@H](CO)C(=O)N[C@@H](CO)C(=O)NCC(=O)N[C@@H](C)C(=O)N1CCC[C@H]1C(=O)N1CCC[C@H]1C(=O)N1CCC[C@H]1C(=O)N[C@@H](CO)C(=O)O)C(C)C)[C@@H](C)CC [AT755] (Glutaryl-GTFISEYSI[Aib][Nle]EKIK(C16 diacid)QQEFVEWLLAQKPSSGAPPPS-OH) | fnd (Fnd = fibrils not detected within experiment time (96 hours) with agitation.) | Clear | 0.23 | – | – | –
3 | CC[C@H](C)[C@H](NC(=O)[C@H](CO)NC(=O)[C@H](Cc1ccc(O)cc1)NC(=O)[C@H](CC(=O)O)NC(=O)[C@H](CO)NC(=O)[C@@H](NC(=O)[C@H](Cc1ccccc1)NC(=O)[C@@H](NC(=O)CNC(=O)[C@@H](N)CCC(=O)O)[C@@H](C)O)[C@@H](C)CC)C(=O)N[C@@H](C)C(=O)N[C@@H](CCSC)C(=O)N[C@@H](CC(=O)O)C(=O)N[C@@H](CCCCN)C(=O)N[C@H](C(=O)N[C@@H](Cc1c[nH]cn1)C(=O)N[C@@H](CCC(N)=O)C(=O)N[C@@H](CCC(N)=O)C(=O)N[C@@H](CC(=O)O)C(=O)N[C@@H](Cc1ccccc1)C(=O)N[C@H](C(=O)N[C@@H](CCC(=O)O)C(=O)N[C@@H](Cc1c[nH]c2ccccc12)C(=O)N[C@@H](CC(C)C)C(=O)N[C@@H](CC(C)C)C(=O)N[C@@H](C)C(=O)N[C@@H](CCC(N)=O)C(=O)N[C@@H](CCCCN)C(=O)N1CCC[C@H]1C(=O)N[C@@H](CO)C(=O)N[C@@H](CO)C(=O)N[C@@H](CCCCNC(=O)CCCCCCCCCCCCCCC(=O)O)C(=O)N[C@@H](C)C(=O)N1CCC[C@H]1C(=O)N1CCC[C@H]1C(=O)N1CCC[C@H]1C(=O)N[C@@H](CO)C(=O)O)C(C)C)[C@@H](C)CC [AT743] (H-EGTFISDYSIAMDKIHQQDFVEWLLAQKPSSK(C16 diacid)APPPS-OH; N-terminus assumed) | fnd (Fnd = fibrils not detected within experiment time (96 hours) with agitation.) | Clear | 19 | – | – | –
4 | CC[C@H](C)[C@H](NC(=O)[C@H](CCCCN)NC(=O)[C@H](CCC(=O)O)NC(=O)[C@H](CC(C)C)NC(=O)C(C)(C)NC(=O)[C@@H](NC(=O)[C@H](CO)NC(=O)[C@H](Cc1ccc(O)cc1)NC(=O)[C@H](CCC(=O)O)NC(=O)[C@H](CO)NC(=O)[C@@H](NC(=O)[C@H](Cc1ccccc1)NC(=O)[C@@H](NC(=O)CNC(=O)[C@@H](N)CCC(=O)O)[C@@H](C)O)[C@@H](C)CC)[C@@H](C)CC)C(=O)N[C@@H](CCCCNC(=O)C(C)(C)NC(=O)CCCCCCCCCCCCCCC(=O)O)C(=O)N[C@@H](CCC(N)=O)C(=O)N[C@@H](CCC(N)=O)C(=O)N[C@@H](CCC(=O)O)C(=O)N[C@@H](Cc1ccccc1)C(=O)N[C@H](C(=O)N[C@@H](CCC(=O)O)C(=O)N[C@@H](Cc1c[nH]c2ccccc12)C(=O)N[C@@H](CC(C)C)C(=O)N[C@@H](CC(C)C)C(=O)N[C@@H](C)C(=O)N[C@@H](CCC(N)=O)C(=O)N[C@@H](CCCCN)C(=O)N1CCC[C@H]1C(=O)N[C@@H](CO)C(=O)N[C@@H](CO)C(=O)NCC(=O)N[C@@H](C)C(=O)N1CCC[C@H]1C(=O)N1CCC[C@H]1C(=O)N1CCC[C@H]1C(=O)N[C@@H](CO)C(=O)O)C(C)C [AT720] (H-EGTFISEYSI[Aib]LEKIK([Aib-C16 diacid])QQEFVEWLLAQKPSSGAPPPS-OH; N-terminus assumed) | – | – | 0.29 | – | – | Avr lag time (h) ([1]; 7.5 mg/ml, Na, MilliQ (8)): fnd (Fnd = fibrils not detected within experiment time (96 hours) with agitation.); Avr lag time (h) ([1]; 15 mg/ml, Na, MilliQ (8)): fnd (Fnd = fibrils not detected within experiment time (96 hours) with agitation.); Visual appearance ([2]; 7.5 mg/ml, Na, MilliQ (8)): Clear; Visual appearance ([2]; 15 mg/ml, Na, MilliQ (8)): Clear
5 | Glutaryl-GTFISDYSI[Aib]MDKIK(C16 diacid)QQDFVNWLLAQKPSSGAPPPS-OH [AT763] | – | – | – | 0.14 | 9.9 | –
6 | B1 | – | – | – | 0.15 | 9.8 | –
7 | B2 | – | – | – | 0.46 | 9.3 | –
